Measurements reported in patent US20250213542A1, “DEVICES AND METHODS FOR DELIVERING SYNERGISTIC ACTIVE AGENTS TO TARGET SITES” (IRRIMAX Corporation, priority 2023, published 2025).
Counter-ions that a name gives are not always drawn. Like-named read-outs stand apart in the source and are kept apart here.

Tests used:
Type in all cases: cell-based
E. coli (ATCC BAA 1427) [1] = assay: Minimum inhibitory concentration determination, serial 2-fold dilution; details: Escherichia coli
Description: (§1) The minimal inhibitory concentration (MIC, the minimum inhibitory concentration required for 90% growth reduction) of octenidine was determined against S. aureus (ATCC 6538), P. aeruginosa (ATCC 15442), and E. coli (ATCC BAA 1427) by serial 2-fold dilution experiments. A solution of chlorhexidine (0.025% w/w) was used as a positive control and comparator.

[2] = system: P. aeruginosa (ATCC 15442); assay: as above; details: Pseudomonas aeruginosa, ATCC15442, P. aeruginosa (ATCC 15442)
Description: as §1

S. aureus (ATCC 6538) [3] = assay: as above; details: Staphylococcus aureus, ATCC6538, S. aureus (ATCC 6538)
Description: as §1

E. coli (ATCC BAA 1427) [4] = assay: Minimal bactericidal concentration determination, serial 2-fold dilution; details: E. coli (ATCC BAA 1427); for Number of Colonies: average of triplicate
Description: (§2) The minimal bactericidal concentration (MBC) of octenidine dihydrochloride was determined against S. aureus (ATCC 6538), P. aeruginosa (ATCC 15442), and E. coli (ATCC BAA 1427) by serial 2-fold dilution experiments. A solution of chlorhexidine (0.025% w/w) was used as a positive control and comparator.

[5] = system: P. aeruginosa (ATCC 15442); assay: as above; details: for Number of Colonies: average of triplicate
Description: as §2

S. aureus (ATCC 6538) [6] = assay: as above; details: for Number of Colonies: average of triplicate
Description: as §2

E. coli = assay: Chequerboard assay, FIC and synergy analysis; details: Escherichia coli
Description: (§3) Chlorhexidine gluconate (CHG) and octenidine dihydrochloride (OCT) were analyzed by chequerboard assay with each test organism to determine potential additive, synergistic, and antagonistic activity. The test organisms S. aureus, P. aeruginosa, and E. coli were tested at ranges of chlorhexidine gluconate (0.122-15.625 μg/ml, 1.25-160 μg/ml, and 0.125-16 μg/ml, respectively) and octenidine dihydrochloride (0.029-3.75 μg/mL, 0.029-3.75 μg/mL, and 0.029-3.75 μg/mL, respectively). FIC was calculated by the following Equation 2: […]

P. aeruginosa = assay: Chequerboard assay, FIC and synergy analysis; details: Pseudomonas aeruginosa, P. aeruginosa, chequerboard
Description: as §3

S. aureus = assay: Chequerboard assay, FIC and synergy analysis; details: Staphylococcus aureus
Description: as §3

[7] = 0.46875 μg/mL, read-out: Average Growth Inhibition (%)
[8] = 0.9375 μg/mL, read-out: Average Growth Inhibition (%)
[9] = 1.875 μg/mL, read-out: Average Growth Inhibition (%)
[10] = 3.75 μg/mL, read-out: Average Growth Inhibition (%)
[11] = 7.5 μg/mL, read-out: Average Growth Inhibition (%)
[12] = 15 μg/mL, read-out: Average Growth Inhibition (%)
[13] = 30 μg/mL, read-out: Average Growth Inhibition (%)
[14] = 60 μg/mL, read-out: Average Growth Inhibition (%)
[15] = read-out: MIC (inhibited greater than 90% growth)
[16] = in presence of CHG, read-out: MIC of OCT in Presence of CHG

## CCCCCCCCN=c1ccn(CCCCCCCCCCn2ccc(=NCCCCCCCC)cc2)cc1 [Octenidine dihydrochloride, 1-Octanamine, N,N′-(1,10-decanediyldi-1(4H)-pyridinyl-4-ylidene)bis-]
E. coli (ATCC BAA 1427) [1]; BAA1427, 0.46875 μg/mL, read-out: Average Growth Inhibition (%)
  inhibition at 0.46875 µg/mL: 6%
E. coli (ATCC BAA 1427) [1]; BAA1427, 0.9375 μg/mL, read-out: Average Growth Inhibition (%)
  inhibition at 0.9375 µg/mL: 12%
E. coli (ATCC BAA 1427) [1]; BAA1427, 1.875 μg/mL, read-out: Average Growth Inhibition (%)
  inhibition at 1.875 µg/mL: 100%
E. coli (ATCC BAA 1427) [1]; BAA1427, 3.75 μg/mL, read-out: Average Growth Inhibition (%)
  inhibition at 3.75 µg/mL: 100%
E. coli (ATCC BAA 1427) [1]; BAA1427, 7.5 μg/mL, read-out: Average Growth Inhibition (%)
  inhibition at 7.5 µg/mL: 100%
E. coli (ATCC BAA 1427) [1]; BAA1427, 15 μg/mL, read-out: Average Growth Inhibition (%)
  inhibition at 15 µg/mL: 99%
E. coli (ATCC BAA 1427) [1]; BAA1427, 30 μg/mL, read-out: Average Growth Inhibition (%)
  inhibition at 30 µg/mL: 97%
E. coli (ATCC BAA 1427) [1]; BAA1427, 60 μg/mL, read-out: Average Growth Inhibition (%)
  inhibition at 60 µg/mL: 91%
E. coli (ATCC BAA 1427) [1]; BAA1427, read-out: MIC (inhibited greater than 90% growth)
  MIC: 1.88 µg/mL
[2]; [7]
  inhibition at 0.46875 µg/mL: 2%
[2]; [8]
  inhibition at 0.9375 µg/mL: 4%
[2]; [9]
  inhibition at 1.875 µg/mL: 100%
[2]; [10]
  inhibition at 3.75 µg/mL: 100%
[2]; [11]
  inhibition at 7.5 µg/mL: 100%
[2]; [12]
  inhibition at 15 µg/mL: 99%
[2]; [13]
  inhibition at 30 µg/mL: 97%
[2]; [14]
  inhibition at 60 µg/mL: 91%
[2]; [15]
  MIC: 1.88 µg/mL
S. aureus (ATCC 6538) [3]; [7]
  inhibition at 0.46875 µg/mL: 50%
S. aureus (ATCC 6538) [3]; [8]
  inhibition at 0.9375 µg/mL: 101%
S. aureus (ATCC 6538) [3]; [9]
  inhibition at 1.875 µg/mL: 101%
S. aureus (ATCC 6538) [3]; [10]
  inhibition at 3.75 µg/mL: 101%
S. aureus (ATCC 6538) [3]; [11]
  inhibition at 7.5 µg/mL: 98%
S. aureus (ATCC 6538) [3]; [12]
  inhibition at 15 µg/mL: 97%
S. aureus (ATCC 6538) [3]; [13]
  inhibition at 30 µg/mL: 92%
S. aureus (ATCC 6538) [3]; [14]
  inhibition at 60 µg/mL: 73%
S. aureus (ATCC 6538) [3]; [15]
  MIC: 0.938 µg/mL
E. coli (ATCC BAA 1427) [4]; 0.46875 μg/mL
  CFU/mL: Lawn (‘Lawn’indicates too many colonies to accurately count (e.g., greater than 250 colonies on an agar plate))
  Number of Colonies: Lawn (‘Lawn’indicates too many colonies to accurately count (e.g., greater than 250 colonies on an agar plate))
E. coli (ATCC BAA 1427) [4]; 0.9375 μg/mL
  CFU/mL: Lawn (‘Lawn’indicates too many colonies to accurately count (e.g., greater than 250 colonies on an agar plate))
  Number of Colonies: Lawn (‘Lawn’indicates too many colonies to accurately count (e.g., greater than 250 colonies on an agar plate))
E. coli (ATCC BAA 1427) [4]; 1.875 μg/mL
  CFU/mL: 0 CFU/mL
  Number of Colonies: 0
E. coli (ATCC BAA 1427) [4]; 3.75 μg/mL
  CFU/mL: 0 CFU/mL
  Number of Colonies: 0
E. coli (ATCC BAA 1427) [4]; 7.5 μg/mL
  CFU/mL: 0 CFU/mL
  Number of Colonies: 0
E. coli (ATCC BAA 1427) [4]; 15 μg/mL
  CFU/mL: 0 CFU/mL
  Number of Colonies: 0
E. coli (ATCC BAA 1427) [4]; 30 μg/mL
  CFU/mL: 0 CFU/mL
  Number of Colonies: 0
E. coli (ATCC BAA 1427) [4]; 60 μg/mL
  CFU/mL: 0 CFU/mL
  Number of Colonies: 0
E. coli (ATCC BAA 1427) [4]; Escherichia coli, BAA1427, read-out: MBC (concentration having less than 500 CFU/mL)
  MBC: 1.88 µg/mL
[5]; 0.46875 μg/mL
  CFU/mL: Lawn (‘Lawn’indicates too many colonies to accurately count (e.g., greater than 250 colonies on an agar plate))
  Number of Colonies: Lawn (‘Lawn’indicates too many colonies to accurately count (e.g., greater than 250 colonies on an agar plate))
[5]; 0.9375 μg/mL
  CFU/mL: Lawn (‘Lawn’indicates too many colonies to accurately count (e.g., greater than 250 colonies on an agar plate))
  Number of Colonies: Lawn (‘Lawn’indicates too many colonies to accurately count (e.g., greater than 250 colonies on an agar plate))
[5]; 1.875 μg/mL
  CFU/mL: 966.67 CFU/mL
  Number of Colonies: 9.667
[5]; 3.75 μg/mL
  CFU/mL: 0 CFU/mL
  Number of Colonies: 0
[5]; 7.5 μg/mL
  CFU/mL: 0 CFU/mL
  Number of Colonies: 0
[5]; 15 μg/mL
  CFU/mL: 0 CFU/mL
  Number of Colonies: 0
[5]; 30 μg/mL
  CFU/mL: 0 CFU/mL
  Number of Colonies: 0
[5]; 60 μg/mL
  CFU/mL: 0 CFU/mL
  Number of Colonies: 0
[5]; Pseudomonas aeruginosa, ATCC15442, read-out: MBC (concentration having less than 500 CFU/mL)
  MBC: 3.75 µg/mL
S. aureus (ATCC 6538) [6]; 0.46875 μg/mL
  CFU/mL: Lawn (‘Lawn’indicates too many colonies to accurately count (e.g., greater than 250 colonies on an agar plate))
  Number of Colonies: Lawn (‘Lawn’indicates too many colonies to accurately count (e.g., greater than 250 colonies on an agar plate))
S. aureus (ATCC 6538) [6]; 0.9375 μg/mL
  CFU/mL: 0 CFU/mL
  Number of Colonies: 0
S. aureus (ATCC 6538) [6]; 1.875 μg/mL
  CFU/mL: 0 CFU/mL
  Number of Colonies: 0
S. aureus (ATCC 6538) [6]; 3.75 μg/mL
  CFU/mL: 566.67 CFU/mL
  Number of Colonies: 5.6667
S. aureus (ATCC 6538) [6]; 7.5 μg/mL
  CFU/mL: 0 CFU/mL
  Number of Colonies: 0
S. aureus (ATCC 6538) [6]; 15 μg/mL
  CFU/mL: 0 CFU/mL
  Number of Colonies: 0
S. aureus (ATCC 6538) [6]; 30 μg/mL
  CFU/mL: 0 CFU/mL
  Number of Colonies: 0
S. aureus (ATCC 6538) [6]; 60 μg/mL
  CFU/mL: 0 CFU/mL
  Number of Colonies: 0
S. aureus (ATCC 6538) [6]; Staphylococcus aureus, ATCC6538, read-out: MBC (concentration having less than 500 CFU/mL)
  MBC: 0.938 µg/mL
E. coli; [16]
  MIC: 0.029 µg/mL
E. coli; read-out: MIC of OCT Alone
  MIC: 1.88 µg/mL
P. aeruginosa; [16]
  MIC: 0.938 µg/mL
P. aeruginosa; read-out: MIC of OCT Alone
  MIC: 1.88 µg/mL
S. aureus; [16]
  MIC: 0.234 µg/mL
S. aureus; read-out: MIC of OCT Alone
  MIC: 0.938 µg/mL
